{"source": "patent US7037693B2", "about": "“Muskmelon (Cucumis melo) hydroperoxide lyase and uses thereof” (Vanderbilt University, priority 2000, dated 2006)", "key": {"[1]": {"molecular_target": "melon 9-hydroperoxide lyase (9-HPL) (Cucumis melo, UniProt A0A1S3BZK9)", "experiment": "Kinetics of melon 9-HPL with fatty acid hydroperoxide substrates (spectrophotometric assay, decrease in absorbance at 235 nm)", "assay_type": "biochemical", "conditions": "relative to 9-hydroperoxylinolenic acid; 'preferably approximately' value", "experimental": "The resulting pellet of cells was resuspended in Tris-acetate buffer (0.1 M, pH 7.6) containing sucrose (0.5 M), EDTA (0.5 mM) and lysozyme (1 mg/ml). After 30 min on ice, the mixture was centrifuged as before to obtain a pellet of spheroplastes. These were resuspended in potassium phosphate buffer (0.1 M, pH 7.6) containing magnesium acetate (6 mM), glycerol (20% v/v) and DTT (0.1 mM) and the mixture left for 10 min at −80° C. Following this, a protease inhibitor was added (PMSF, 1 mM) and the cells sonicated (2×30 seconds). […] Compared to the control protein produced from vector alone with no cDNA insert, there was less protein, but the bacterial lysates of each gave easily measurable catalytic activity. By monitoring the disappearance of the UV-235 nm absorbance of the fatty acid hydroperoxide substrates, less than 1 μl (<10 μg crude protein) of the suspended and lysed bacterial pellets were required in order to observe reaction in a 1 ml UV cuvette. Measurement was made using the spectrophotometric assay (decrease in absorbance at 235 nm) and the initial rates of reaction. The turnover number of the purified 9-HPL enzyme (number of product molecules formed per molecule of enzyme) using 9S-hydroperoxylinoleic acid as substrate was calculated from the known concentration of the enzyme (measured at the Soret maximum at 416 nm, and using a molar extinction coefficient of 100,000), and the measured rates of change of substrate concentration (using the molar extinction coefficient of 23,000 at 235 nm of the conjugated diene)."}, "[2]": {"substrate": "CC/C=C\\C[C@@H](/C=C/C=C\\CCCCCCCC(=O)O)OO", "experiment": "Kinetics of melon 9-HPL with fatty acid hydroperoxide substrates (spectrophotometric assay, decrease in absorbance at 235 nm)", "assay_type": "biochemical, Cucumis melo", "conditions": "95% confidence limits given; pH 7.6", "experimental": "(§1) The resulting pellet of cells was resuspended in Tris-acetate buffer (0.1 M, pH 7.6) containing sucrose (0.5 M), EDTA (0.5 mM) and lysozyme (1 mg/ml). After 30 min on ice, the mixture was centrifuged as before to obtain a pellet of spheroplastes. These were resuspended in potassium phosphate buffer (0.1 M, pH 7.6) containing magnesium acetate (6 mM), glycerol (20% v/v) and DTT (0.1 mM) and the mixture left for 10 min at −80° C. Following this, a protease inhibitor was added (PMSF, 1 mM) and the cells sonicated (2×30 seconds). […] By monitoring the disappearance of the UV-235 nm absorbance of the fatty acid hydroperoxide substrates, less than 1 μl (<10 μg crude protein) of the suspended and lysed bacterial pellets were required in order to observe reaction in a 1 ml UV cuvette. Measurement was made using the spectrophotometric assay (decrease in absorbance at 235 nm) and the initial rates of reaction. The turnover number of the purified 9-HPL enzyme (number of product molecules formed per molecule of enzyme) using 9S-hydroperoxylinoleic acid as substrate was calculated from the known concentration of the enzyme (measured at the Soret maximum at 416 nm, and using a molar extinction coefficient of 100,000), and the measured rates of change of substrate concentration (using the molar extinction coefficient of 23,000 at 235 nm of the conjugated diene)."}, "[3]": {"substrate": "CCCCC/C=C\\C=C\\[C@H](CCCCCCCC(=O)O)OO", "experiment": "Kinetics of melon 9-HPL with fatty acid hydroperoxide substrates (spectrophotometric assay, decrease in absorbance at 235 nm)", "assay_type": "biochemical, Cucumis melo", "conditions": "95% confidence limits given; pH 7.6", "experimental": "as §1"}, "[4]": {"experiment": "pH dependence of the activity of the lyase", "assay_type": "biochemical, Cucumis melo"}}, "note": "Where “and” joins values, the source holds several entries; their conditions need not be identical. Equal entries are not always repeated."}
{"molecule": "CC/C=C\\C[C@@H](/C=C/C=C\\CCCCCCCC(=O)O)OO", "note": "[13-hydroperoxylinolenic acid, (9Z, 11E, 13S, 15Z) 13-hydroperoxyoctadeca-9,11,15-trienoic acid]", "values": [{"measurement": "Vmax as percentage of the Vmax of the lyase for 9-hydroperoxylinolenic acid", "setting": "[1]", "value": "approximately 22%"}]}
{"molecule": "CCCCC[C@@H](/C=C/C=C\\CCCCCCCC(=O)O)OO", "note": "[13-hydroperoxylinoleic acid, (9Z,11E,13S)13-hydroperoxyoctadeca-9,11-dienoic acid]", "values": [{"measurement": "Vmax as percentage of the Vmax of the lyase for 9-hydroperoxylinolenic acid", "setting": "[1]", "value": "approximately 30%"}]}
{"molecule": "CCCCC/C=C\\C=C\\[C@H](CCCCCCCC(=O)O)OO", "note": "[9-hydroperoxylinoleic acid, (9S, 10E, 12Z) 9-hydroperoxyoctadeca-10,12-dienoic acid]", "values": [{"measurement": "Km as percentage of the Km of the lyase for 9-hydroperoxylinolenic acid", "setting": "[1]", "value": "approximately 54%"}, {"measurement": "Vmax as percentage of the Vmax of the lyase for 9-hydroperoxylinolenic acid", "setting": "[1]", "value": "approximately 55%"}]}
{"molecule": "melon 9-hydroperoxide lyase (9-HPL) (Cucumis melo) (protein) MATPSSSSPELPLKPIPGGYGFPFLGPIKDRYDYFYFQGRDEFFRSRITKYNSTVFRANMPPGPFISSDSRVVVLLDALSFPILFDTAKVEKRNILDGTYMPSLSFTGNIRTCAYLDPSETEHSVLKRLFLSFLASRHDRFIPLFRSSLSEMFVKLEDKLSEKKKIADFNSISDSMSFDYVFRLLSDGTPDSKLAAEGPGMFDLWLVFQLAPLASIGLPKIFSVFEDLVIHTIPLPFFPVKSGYRKLYEAFYSSSGSFLDEAEKQGIDREKACHNLVFLAGFNAYGGMKVLFPTLLKWVGTAGEDLHRKLAEEVRTTVKEEGGLTFSALEKMSLLKSVVYEALRIEPPVPFQYGKAKEDIVIQSHDSSFKIKKGETIFGYQPFATKDPKIFKDSEKFVGDRFVGEEGEKLLKYVYWSNERETVEPTAENKQCPGKNLVVLIGRIMVVEFFLRYDTFTVEVADLPLGPAVKFKSLTRATDMV", "values": [{"measurement": "Km", "setting": "[2]", "value": "50 µM and 51 µM"}, {"measurement": "Km", "setting": "[3]", "value": 192, "unit": "µM"}]}
{"molecule": "lyase: fatty acid 9-hydroperoxide lyase of muskmelon (Cucumis melo), SEQ ID NO:7, recombinantly expressed in E. coli (protein, Cucumis melo) MATPSSSSPELPLKPIPGGYGFPFLGPIKDRYDYFYFQGRDEFFRSRITKYNSTVFRANMPPGPFISSDSRVVVLLDALSFPILFDTAKVEKRNILDGTYMPSLSFTGNIRTCAYLDPSETEHSVLKRLFLSFLASRHDRFIPLFRSSLSEMFVKLEDKLSEKKKIADFNSISDSMSFDYVFRLLSDGTPDSKLAAEGPGMFDLWLVFQLAPLASIGLPKIFSVFEDLVIHTIPLPFFPVKSGYRKLYEAFYSSSGSFLDEAEKQGIDREKACHNLVFLAGFNAYGGMKVLFPTLLKWVGTAGEDLHRKLAEEVRTTVKEEGGLTFSALEKMSLLKSVVYEALRIEPPVPFQYGKAKEDIVIQSHDSSFKIKKGETIFGYQPFATKDPKIFKDSEKFVGDRFVGEEGEKLLKYVYWSNERETVEPTAENKQCPGKNLVVLIGRIMVVEFFLRYDTFTVEVADLPLGPAVKFKSLTRATDMV", "values": [{"measurement": "activity as percentage of maximal activity", "setting": "[4]; pH 5.0", "value": "approximately 25%"}, {"measurement": "activity as percentage of maximal activity", "setting": "[4]; pH 9.0", "value": "approximately 15%"}]}
